Measurements from ChEMBL document CHEMBL3217627, “Designing glucokinase activators with reduced hypoglycemia risk: discovery of N,N-dimethyl-5-(2-methyl-6-((5-methylpyrazin-2-yl)-carbamoyl)benzofuran-4-yloxy)pyrimidine-2-carboxamide as a clinical candidate for the treatment of type 2 diabetes mellitus” (Medchemcomm, 2011).
≈ marks a conversion by molar mass, not a printed value. Calls of active or inactive are those of the source. No cut-off for these calls is given here.

How the values were obtained:
[1] = Kinetic solubility of the compound; type: physicochemical; conditions: read-out: Kinetic_solubility
Hexokinase-4 [2] = target: T1, Hexokinase-4 (Homo sapiens, UniProt P35557)
T1 sequence (P35557 whole entry): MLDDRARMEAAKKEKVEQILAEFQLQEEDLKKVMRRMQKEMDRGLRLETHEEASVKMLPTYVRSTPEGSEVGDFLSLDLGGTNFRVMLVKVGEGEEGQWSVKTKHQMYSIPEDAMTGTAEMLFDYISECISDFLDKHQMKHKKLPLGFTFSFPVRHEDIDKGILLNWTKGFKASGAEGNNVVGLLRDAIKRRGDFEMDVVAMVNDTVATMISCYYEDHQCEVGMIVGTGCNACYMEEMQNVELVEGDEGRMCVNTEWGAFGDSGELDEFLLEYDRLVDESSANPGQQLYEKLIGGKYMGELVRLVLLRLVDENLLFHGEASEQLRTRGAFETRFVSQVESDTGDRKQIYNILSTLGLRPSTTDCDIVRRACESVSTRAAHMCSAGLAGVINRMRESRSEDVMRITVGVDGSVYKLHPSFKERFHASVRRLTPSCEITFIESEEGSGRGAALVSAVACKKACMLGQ
Description: Activation of recombinant human glucokinase assessed as formation of glucose-6-phosphate by G6PDH/NADP coupled assay

hERG (KCNH2) = hERG (KCNH2) (Homo sapiens, UniProt Q12809); assay: Inhibition of dofetilide binding to human ERG at 10 uM relative to control; conditions: probe dofetilide
[3] = Intrinsic clearance in human liver microsomes; type: ADME; conditions: read-out: CLH
[4] = Passive permeability across RRCK cells; type: ADME, cell-based, Canis lupus familiaris, MDCKII-LE; conditions: dog, MDCK; read-out: permeability
Rattus norvegicus [5] = assay: Antidiabetic activity in Sprague-Dawley rat assessed as reduction of post-prandial glucose excursion at 3 to 100 mg/kg, po administered for 60 mins followed by glucose challenge measured up to 120 mins by OGTT; type: functional, organism-based
Hexokinase-4 [6] = target: T2, Hexokinase-4 (Rattus norvegicus, UniProt P17712); assay: Activation of rat glucokinase
T2 sequence (P17712 whole entry): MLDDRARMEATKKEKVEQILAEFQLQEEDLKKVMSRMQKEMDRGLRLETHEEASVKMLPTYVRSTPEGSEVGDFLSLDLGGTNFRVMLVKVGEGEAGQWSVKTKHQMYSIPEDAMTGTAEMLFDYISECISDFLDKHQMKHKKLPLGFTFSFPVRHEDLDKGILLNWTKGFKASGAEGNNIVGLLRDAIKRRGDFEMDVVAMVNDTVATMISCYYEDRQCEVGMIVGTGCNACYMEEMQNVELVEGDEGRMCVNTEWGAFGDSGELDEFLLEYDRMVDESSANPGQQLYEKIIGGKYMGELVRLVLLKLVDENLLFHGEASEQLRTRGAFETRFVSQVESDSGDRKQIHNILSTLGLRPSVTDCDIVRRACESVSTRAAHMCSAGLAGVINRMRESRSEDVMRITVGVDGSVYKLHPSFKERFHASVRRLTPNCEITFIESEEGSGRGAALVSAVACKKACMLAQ

[7] = Selectivity ratio of EC50 for rat glucokinase to EC50 for human glucokinase
Rattus norvegicus [8] = assay: Antidiabetic activity in po dosed Sprague-Dawley rat assessed as reduction of post-prandial glucose excursion administered for 60 mins followed by glucose challenge measured up to 120 mins by OGTT; type: functional, organism-based
Rattus norvegicus [9] = assay: Toxicity in Sprague-Dawley rat assessed as hypoglycemic level at 30 to 100 mg/kg, po administered for 60 mins measured over first hour prior to OGTT; type: organism-based; design: dose 30-100 mg/kg, route oral; conditions: in vivo, 1 h
Rattus norvegicus [10] = assay: Toxicity in po dosed Sprague-Dawley rat assessed as reduction in fasting plasma glucose level administered for 60 mins measured over first hour prior to OGTT; type: organism-based; conditions: in vivo, 1 h

Chain of hERG (KCNH2) (Q12809 whole entry): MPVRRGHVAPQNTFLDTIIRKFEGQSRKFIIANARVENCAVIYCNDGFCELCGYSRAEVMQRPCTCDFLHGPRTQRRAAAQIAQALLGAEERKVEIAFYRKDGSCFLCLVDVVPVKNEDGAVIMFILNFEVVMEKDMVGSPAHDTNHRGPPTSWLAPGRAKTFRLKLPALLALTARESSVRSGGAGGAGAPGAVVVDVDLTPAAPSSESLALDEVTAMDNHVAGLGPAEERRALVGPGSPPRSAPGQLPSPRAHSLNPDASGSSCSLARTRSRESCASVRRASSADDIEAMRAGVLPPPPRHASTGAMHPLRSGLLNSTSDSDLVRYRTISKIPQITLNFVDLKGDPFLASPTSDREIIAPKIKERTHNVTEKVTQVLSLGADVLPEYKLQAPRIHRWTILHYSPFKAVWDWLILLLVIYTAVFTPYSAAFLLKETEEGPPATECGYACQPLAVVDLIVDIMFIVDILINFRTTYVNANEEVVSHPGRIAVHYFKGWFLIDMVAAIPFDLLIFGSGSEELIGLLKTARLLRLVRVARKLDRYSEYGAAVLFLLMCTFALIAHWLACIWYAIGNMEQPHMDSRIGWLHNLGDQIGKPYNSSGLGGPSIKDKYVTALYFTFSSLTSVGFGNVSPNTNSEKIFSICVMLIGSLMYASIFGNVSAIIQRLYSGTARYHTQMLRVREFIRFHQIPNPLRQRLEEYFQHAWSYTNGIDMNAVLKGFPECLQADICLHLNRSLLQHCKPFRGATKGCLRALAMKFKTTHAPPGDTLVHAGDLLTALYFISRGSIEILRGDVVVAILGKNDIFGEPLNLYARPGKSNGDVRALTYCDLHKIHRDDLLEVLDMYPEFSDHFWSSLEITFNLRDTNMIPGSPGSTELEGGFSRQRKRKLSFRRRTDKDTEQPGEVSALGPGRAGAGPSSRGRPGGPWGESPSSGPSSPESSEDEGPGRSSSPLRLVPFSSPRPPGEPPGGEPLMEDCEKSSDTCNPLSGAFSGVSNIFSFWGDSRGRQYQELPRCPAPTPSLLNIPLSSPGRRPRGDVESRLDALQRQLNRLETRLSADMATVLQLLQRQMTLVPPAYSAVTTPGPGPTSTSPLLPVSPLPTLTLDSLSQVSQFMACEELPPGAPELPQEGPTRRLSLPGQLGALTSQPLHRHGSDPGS

Row | SMILES | solubility kinetic [1] | EC50 (Hexokinase-4 [2]) | inhibition at 10 µM (hERG (KCNH2)) | CLint scaled [3] | Papp [4] | Activity (Rattus norvegicus [5]) | EC50 (Hexokinase-4 [6]) | Ratio EC50 [7] | Activity (Rattus norvegicus [8]) | Activity (Rattus norvegicus [9]) | Activity (Rattus norvegicus [10])
1 | Cc1ccc(NC(=O)c2cc(Oc3cnc(C(=O)N(C)C)cn3)c3cc(C)oc3c2)nc1 | 215 µM (≈ 92.8 µg/mL) | 477 nM | 2% | < 10.6 mL/min/kg | 21.5 ×10⁻⁶ cm/s | – | – | – | – | – | –
2 | CS(=O)(=O)c1ccc([C@@H](C[C@H]2CCC(=O)C2)C(=O)Nc2cnccn2)cc1Cl [PIRAGLIATIN] | – | – | – | – | – | Active | 100 nM | – | – | – | –
3 | Cc1cnc(NC(=O)c2cc(Oc3ccc(C(=O)N(C)C)cc3)c3cc(C)oc3c2)cn1 | – | 92 nM | – | 17 mL/min/kg | 5.9 ×10⁻⁶ cm/s | – | – | – | – | – | –
4 | Cc1cc2c(Oc3cnc(C(=O)N(C)C)cn3)cc(C(=O)Nc3cnc(C(F)(F)F)cn3)cc2o1 | 6 µM (≈ 2.92 µg/mL) | 167 nM | 18% | 16.1 mL/min/kg | 9.7 ×10⁻⁶ cm/s | – | – | – | – | – | –
5 | Cc1csc(NC(=O)c2cc(Sc3nccn3C)c(F)cc2N)n1 | – | 66 nM | – | – | – | – | – | – | – | – | –
6 | COC1CN(C(=O)c2cnc(Oc3cc(C(=O)Nc4cnccn4)cc4oc(C)cc34)cn2)C1 | 158 µM (≈ 72.8 µg/mL) | > 5000 nM | 38% | < 9.2 mL/min/kg | 21.8 ×10⁻⁶ cm/s | – | – | – | – | – | –
7 | Cn1ccc(NC(=O)c2cc(Oc3ccc(C(=O)N4CCC4)c(F)c3)c3c(c2)OC(C)(C)C3)n1 | – | 27 nM | – | – | – | – | 50 nM | < 4 | Dose-dependent effect | < 60 mg/dL | Dose-dependent effect
8 | COc1ccc2nc(NC(=O)[C@H](CC3CCCC3)c3ccc(S(=O)(=O)N4CCN(C)CC4)cc3)sc2n1 | – | 122 nM | – | – | – | – | 390 nM | < 4 | – | – | –
9 | COCc1ccc(Oc2cc3[nH]c(-c4ccccn4)nc3cc2[C@H]2CCCN2C(C)=O)cn1 | – | 88 nM | – | – | – | – | 187 nM | < 4 | – | – | –
10 | COc1cnc(NC(=O)c2cc(Oc3cnc(C(=O)N(C)C)cn3)c3cc(C)oc3c2)cn1 | 25 µM (≈ 11.2 µg/mL) | 127 nM | 6% | < 8 mL/min/kg | 15.8 ×10⁻⁶ cm/s | – | – | – | – | – | –
11 | Cc1cnc(NC(=O)c2cc(Oc3ncc(C(=O)N(C)C)cn3)c3cc(C)oc3c2)cn1 | 485 µM (≈ 210 µg/mL) | > 20 nM | 0% | < 8 mL/min/kg | 34.7 ×10⁻⁶ cm/s | – | – | – | – | – | –
12 | Cc1cnc(NC(=O)c2cc(Oc3cnc(C(=O)N4CCC4)cn3)c3cc(C)oc3c2)cn1 | 10 µM (≈ 4.44 µg/mL) | 85 nM | 4% | < 9.3 mL/min/kg | 17.4 ×10⁻⁶ cm/s | – | – | – | – | – | –
13 | CCN(C)C(=O)c1cnc(Oc2cc(C(=O)Nc3cnc(C)cn3)cc3oc(C)cc23)cn1 | 344 µM (≈ 154 µg/mL) | 153 nM | 6% | < 8 mL/min/kg | 24.1 ×10⁻⁶ cm/s | – | – | – | – | – | –
14 | Cc1cnc(NC(=O)c2cc(Oc3cnc(C(=O)N4CCCC4)cn3)c3cc(C)oc3c2)cn1 | 4.5 µM (≈ 2.06 µg/mL) | 64 nM | 6% | < 8.1 mL/min/kg | 15.8 ×10⁻⁶ cm/s | – | – | – | – | – | –
15 | Cc1cc2c(Oc3cnc(C(=O)N(C)C)cn3)cc(C(=O)Nc3cnccn3)cc2o1 | 30 µM (≈ 12.6 µg/mL) | 391 nM | 60% | 15 mL/min/kg | 30 ×10⁻⁶ cm/s | – | – | – | – | – | –
